Measurements taken from the NIST ThermoML archive (doi:10.1021/je060271a).

Conditions: 343.15 K, Liquid, Vibrating tube method

CCCCCCC(=O)OCC(COC(=O)CCCCCC)(COC(=O)CCCCCC)COC(=O)CCCCCC [pentaerythritol tetraheptanoate]
Conditions | mass density [kg/m3]
7850.3 kPa | 946.4
7873.8 kPa | 946.5
7893.3 kPa | 946.5
7913.5 kPa | 946.6
7937 kPa | 946.6
7957 kPa | 946.6
7977.2 kPa | 946.6
8001.2 kPa | 946.6
8021.7 kPa | 946.5
8042.2 kPa | 946.6
8067.3 kPa | 946.5
8088 kPa | 946.6
8109.4 kPa | 946.6
8130.2 kPa | 946.6
8151.8 kPa | 946.6
8177.7 kPa | 946.8
8199.3 kPa | 946.8
8220.8 kPa | 946.7
8246.2 kPa | 946.7
8268.1 kPa | 946.7
8290 kPa | 946.7
8311.6 kPa | 946.9
8338.1 kPa | 946.7
8361.6 kPa | 946.7
8384.3 kPa | 946.8
8406.7 kPa | 946.8
8433.8 kPa | 946.9
8456.2 kPa | 946.9
8479.4 kPa | 946.9
8502.3 kPa | 946.8
8530.3 kPa | 946.9
8553.5 kPa | 946.9
8577.2 kPa | 946.9
8605.4 kPa | 947
8629.1 kPa | 947
8653.2 kPa | 947
8683.2 kPa | 947
8702.1 kPa | 947.2
8731.5 kPa | 947.1
8755.6 kPa | 947.1
8780.3 kPa | 947.2
8809.9 kPa | 947.1
8834.4 kPa | 947.2
8864.2 kPa | 947.3
8889.4 kPa | 947.1
8914.2 kPa | 947.2
8939.2 kPa | 947.2
8970.1 kPa | 947.3
8995.6 kPa | 947.2
9022.5 kPa | 947.3
9053.7 kPa | 947.3
9079.4 kPa | 947.3
9110.6 kPa | 947.5
9136.4 kPa | 947.5
9163.7 kPa | 947.4
9195.6 kPa | 947.5
9222.6 kPa | 947.5
9249.7 kPa | 947.4
9282.3 kPa | 947.4
9309.7 kPa | 947.4
9337.9 kPa | 947.6
9371.4 kPa | 947.5
9400.1 kPa | 947.5
9428.6 kPa | 947.6
9456.7 kPa | 947.6
9491 kPa | 947.7
9519.9 kPa | 947.6
9549 kPa | 947.8
9584 kPa | 947.6
9613.7 kPa | 947.9
9649.3 kPa | 947.7
9679.5 kPa | 947.8
9709.5 kPa | 947.9
9739.8 kPa | 947.8
9777.3 kPa | 947.7
9809 kPa | 947.8
9840.2 kPa | 947.9
9878.1 kPa | 948
9910.3 kPa | 947.8
9943.2 kPa | 947.8
9983.2 kPa | 948
10018 kPa | 947.9
10052 kPa | 947.9
10080 kPa | 948.1
10104 kPa | 948.1
10124 kPa | 948
10144 kPa | 948
10169 kPa | 948.1
10189 kPa | 948.2
10207 kPa | 948.2
10224 kPa | 948.1
10244 kPa | 948.2
10261 kPa | 948.2
10281 kPa | 948.2
10298 kPa | 948.3
10315 kPa | 948.2
10335 kPa | 948.2
10352 kPa | 948.3
10370 kPa | 948.3
10390 kPa | 948.3
10408 kPa | 948.2
10425 kPa | 948.3
10445 kPa | 948.3
10463 kPa | 948.3
10481 kPa | 948.2
10502 kPa | 948.4
10520 kPa | 948.3
10537 kPa | 948.3
10558 kPa | 948.4
10576 kPa | 948.3
10594 kPa | 948.4
10613 kPa | 948.5
10635 kPa | 948.4
10655 kPa | 948.5
10673 kPa | 948.4
10692 kPa | 948.5
10710 kPa | 948.5
10732 kPa | 948.5
10750 kPa | 948.5
10769 kPa | 948.6
10791 kPa | 948.6
10810 kPa | 948.6
10832 kPa | 948.8
10851 kPa | 948.6
10870 kPa | 948.6
10893 kPa | 948.6
10909 kPa | 948.6
10932 kPa | 948.7
10951 kPa | 948.6
10975 kPa | 948.7
10994 kPa | 948.7
11014 kPa | 948.7
11033 kPa | 948.8
11056 kPa | 948.7
11076 kPa | 948.8
11096 kPa | 948.8
11120 kPa | 948.9
11140 kPa | 948.8
11160 kPa | 948.7
11184 kPa | 948.8
11204 kPa | 948.8
11224 kPa | 948.8
11245 kPa | 948.8
11269 kPa | 948.8
11289 kPa | 948.9
11310 kPa | 949
11335 kPa | 948.8
11356 kPa | 948.9
11380 kPa | 948.8
11401 kPa | 949.1
11422 kPa | 948.9
11447 kPa | 949
11469 kPa | 949.1
11490 kPa | 949
11511 kPa | 948.9
11537 kPa | 949.2
11558 kPa | 949.1
11584 kPa | 949.2
11606 kPa | 949.1
11627 kPa | 949.2
11649 kPa | 949
11675 kPa | 949.3
11697 kPa | 949.1
11719 kPa | 949.2
11746 kPa | 949.3
11768 kPa | 949.2
11794 kPa | 949.3
11817 kPa | 949.3
11840 kPa | 949.2
11862 kPa | 949.3
11889 kPa | 949.4
11911 kPa | 949.2
11939 kPa | 949.3
11962 kPa | 949.5
11985 kPa | 949.4
12012 kPa | 949.4
12036 kPa | 949.4
12060 kPa | 949.5
12088 kPa | 949.5
12112 kPa | 949.3
12136 kPa | 949.5
12159 kPa | 949.5
12188 kPa | 949.5
12212 kPa | 949.6
12241 kPa | 949.5
12265 kPa | 949.6
12290 kPa | 949.5
12314 kPa | 949.6
12344 kPa | 949.5
12368 kPa | 949.6
12394 kPa | 949.7
12424 kPa | 949.8
12449 kPa | 949.7
12474 kPa | 949.9
12504 kPa | 949.7
12530 kPa | 949.7
12555 kPa | 949.8
12581 kPa | 949.7
12612 kPa | 949.9
12638 kPa | 949.9
12664 kPa | 949.8
12695 kPa | 949.8
12722 kPa | 950
12750 kPa | 949.9
12776 kPa | 950
12803 kPa | 949.8
12834 kPa | 950.1
12861 kPa | 950.1
12894 kPa | 950
12921 kPa | 950.1
12948 kPa | 950
12975 kPa | 950
13007 kPa | 950.1
13035 kPa | 950.2
13069 kPa | 950.1
13098 kPa | 950.1
13127 kPa | 950.2
13155 kPa | 950.2
13189 kPa | 950.3
13217 kPa | 950.3
13246 kPa | 950.3
13275 kPa | 950.3
13311 kPa | 950.4
